Patent publication US8106056B2, “Combination preparations comprising bifeprunox and a dopamine agonist” (Solvay Pharmaceuticals B.V., priority 2006, dated 2012)
“Also recorded” adds a separate entry of the source.

Key:
[1] = system: MPTP-treated common marmosets; assay: Disability rating in MPTP-treated common marmosets; type: in vivo, common marmosets (Callithrix jacchus)
Procedure: (§1) These animals were L-DOPA responsive and not test drug naive. They had not been experimentally primed for dyskinesia although some dyskinesia was present.
(§2) Drug treatment: Bifeprunox mesylate was suspended in 10% sucrose solution and administered orally by gavage in a volume of 2.0 ml/kg. L-DOPA: L-3,4-Dihydroxyphenylalanine (L-dopa) methylester (Sigma Chemical Co, UK) was dissolved in 10% sucrose solution and administered orally by gavage in a volume of 2.0 ml/kg. Carbidopa: (Merck, Sharp and Dohme, UK) was administered orally as a suspension in 10% sucrose solution in a volume of 2.0 ml/kg. Domperidone: (2.0 mg/kg po, Sigma UK) was dissolved in 10% sucrose and administered 60 min prior to bifeprunox in a volume of 2.0 ml/kg, Bifeprunox (4 or 8 mg/kg po free base) or its vehicle (10% sucrose) was administered alone and in combination with L-DOPA (7.5 mg/kg po free base, given in combination with carbidopa, 12.5 mg/kg po) to MPTP-treated marmosets (n=6). Animals were treated with bifeprunox or its vehicle 90 min prior to administration of L-DOPA or its vehicle administration. Carbidopa was administered 30 minutes prior to administration of L-DOPA. Domperidone was administered 60 min prior to bifeprunox administration.
Disability and dyskinesia scores: Disability and dyskinesia was assessed before, and during the last 10 minutes in every 30 min period after bifeprunox administration for up to 6 hours following drug treatment. The following disability rating scales were used:
Rating of disability: The disability of animals was scored as follows; alertness (normal 0, sleepy 2); reaction (normal 0, reduced 1, slow 2, absent 3); checking movements (present 0, reduced 1, absent 2); attention and eye movements (normal 0, abnormal 1); posture (normal 0, abnormal trunk+1, abnormal limbs+1, abnormal tail+1, or grossly abnormal 4); balance/co-ordination (normal 0, impaired 1, unstable 2, spontaneous falls 3); vocalisation (normal 0, reduced 1, absent 2); motility (normal 0, bradykinesia/hyperkinesia 1, akinesia/hyperkinesia 2). Sedation was noted if present.
(§3) Data and Statistical Analysis: Data are presented as median locomotor activity (counts/30 min) or disability score (score over 10 min/30 min) over the 7 hour period of the experiment, or as total locomotor activity (counts/420 min) or disability (total score over 420 min). Data were analysed by Kruskall Wallis ANOVA and post-hoc Man-Whitney test where appropriate. Analyses were corrected for multiple comparisons using the formula: Acceptable probability=α/number of comparisons where α=5% A separate group of animals from those used in the study were treated with vehicle and were used for statistical comparison.

[2] = system: MPTP-treated common marmosets; assay: Locomotor activity in MPTP-treated common marmosets (automated activity cages); type: in vivo, common marmosets (Callithrix jacchus)
Procedure: as §1, §2
Behavioral Studies: In all studies, animals were acclimatised to behavioral study cages for 1 hour prior to treatment. The animals were placed individually into activity cages (50×60×70 cm) fitted with a clear perspex door to allow clear visibility for observation. Each cage was equipped with 8 horizontally orientated infrared photocell emitters and their corresponding detectors arranged so as to permit maximum assessment of movement. Locomotor activity was assessed as the number of light beam interruptions caused by movement of the animals accumulated in 10-minute intervals for up to 7 hours. The animals were allowed a 60-minute acclimatisation period in the activity cages during which baseline activity was assessed, before drug administration. ‘On’ Threshold was defined as 3 times baseline activity in MPTP-treated marmosets. Hyperactivity was defined as 3 times normal activity in naive marmosets. ‘On’ time was the period of time in minutes that activity was above the ‘On’ Threshold. Animals were treated with bifeprunox, vehicle and/or L-DOPA. Following drug treatment, animals were assessed for locomotor activity and disability as described below for up to 6 h following drug administration. The animals used in the study were in the automated activity cages for no longer than 8 h on any study day, and were allowed at least 3 days recovery period between drug treatments to ensure appropriate animal welfare consideration. The locomotor activity, motor disability and presence of dyskinesia were assessed as follows:
Locomotor Activity: In all studies the animals were acclimatised to behavioral study cages for 1 hour prior to bifeprunox treatment. Animals were then treated with appropriate drugs. Following treatment, animals were assessed for antiparkinsonian activity for up to 6 h using automated activity cages and by the rating of disability by an observer blinded to the treatment.
as §3

[3] = system: dopamine D2/3 receptors; conditions: cited from earlier work
[4] = molecular target: T1, serotonin 5-HT1A receptors (Homo sapiens, UniProt P08908); conditions: cited from earlier work
T1 sequence (P08908 1-422): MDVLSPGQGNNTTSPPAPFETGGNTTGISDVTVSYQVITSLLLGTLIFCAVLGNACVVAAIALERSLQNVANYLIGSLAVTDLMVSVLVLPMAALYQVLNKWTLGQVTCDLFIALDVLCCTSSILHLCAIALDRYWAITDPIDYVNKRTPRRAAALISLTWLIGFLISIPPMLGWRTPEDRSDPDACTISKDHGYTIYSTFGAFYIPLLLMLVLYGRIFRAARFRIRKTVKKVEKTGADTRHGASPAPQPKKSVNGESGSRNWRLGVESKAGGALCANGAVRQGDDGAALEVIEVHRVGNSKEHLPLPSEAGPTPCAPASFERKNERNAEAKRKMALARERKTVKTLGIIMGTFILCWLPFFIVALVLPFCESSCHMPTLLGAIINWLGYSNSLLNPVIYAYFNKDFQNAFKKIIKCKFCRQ

[5] = L-DOPA 7.5 mg/kg po plus carbidopa 12.5 mg/kg po 30 min prior
[6] = bifeprunox 4 mg/kg po 90 min prior to L-DOPA 7.5 mg/kg po plus carbidopa 12.5 mg/kg po
[7] = bifeprunox 4 mg/kg po alone, p<0.05, Mann Whitney
[8] = bifeprunox 8 mg/kg po 90 min prior to L-DOPA 7.5 mg/kg po plus carbidopa 12.5 mg/kg po
[9] = bifeprunox 8 mg/kg po alone, p<0.05, Mann Whitney

N[C@@H](Cc1ccc(O)c(O)c1)C(=O)O [L-DOPA, L-3,4-Dihydroxyphenylalanine, reference compound]
disability 'On-Time' [1, 5]: 120 min/420 min | time at which peak disability score was reached after administration (median) [1, 5]: 75 min | disability scores compared to vehicle administration ([1]; L-DOPA 7.5 mg/kg po plus carbidopa 12.5 mg/kg po 30 min prior, p<0.05, Mann Whitney): decreased | locomotor activity compared to vehicle administration [2, 5]: increased | median duration of activity (locomotor On-Time) [2, 5]: 180 min/420 min | Total locomotor activity and locomotor 'on-time' versus vehicle ([2]; L-DOPA 7.5 mg/kg po plus carbidopa 12.5 mg/kg po, p<0.05, Mann Whitney): greater than vehicle-treated animals

O=c1[nH]c2cccc(N3CCN(Cc4cccc(-c5ccccc5)c4)CC3)c2o1 [bifeprunox, 7-[4-([1,1′-biphenyl]-3-ylmethyl)-1-piperazinyl]-2(3H)-benzoxazolone]
functional activity at dopamine D2/3 receptors [3]: partial agonist | Duration of activity (disability On-Time) [1, 6]: 360 min/420 min | Duration of activity (disability On-Time) compared to bifeprunox alone [1, 6]: tended to increase | disability scores over the period of the study [1, 6]: decreased | Median duration of activity (disability On-Time) ([1]; bifeprunox 4 mg/kg po alone): 210 min/420 min | disability scores compared to vehicle administration [1, 7]: decreased | Duration of activity (disability On-Time) [1, 8]: 165 min/420 min | Duration of activity (disability On-Time) compared to bifeprunox (8 mg/kg po) alone or L-DOPA plus carbidopa [1, 8]: not different | disability scores [1, 8]: decreased | Duration of activity (disability On-Time) ([1]; bifeprunox 8 mg/kg po alone): 225 min/420 min | Total decrease in disability versus vehicle ([1]; bifeprunox 8 mg/kg po alone): lower than vehicle-treated animals | disability scores compared to vehicle treatment [1, 9]: decreased | Locomotor activity compared to L-DOPA alone and bifeprunox (4 mg/kg po) alone [2, 6]: tended to increase | locomotor On-Time compared to the single treatments [2, 6]: slightly greater than that seen after L-DOPA alone and bifeprunox | locomotor activity compared to baseline [2, 6]: increased | median duration of activity (locomotor On-Time) [2, 6]: 390 min/420 min | locomotor activity compared to vehicle administration ([2]; bifeprunox 4 mg/kg po alone): increased | median duration of activity (locomotor On-Time) ([2]; bifeprunox 4 mg/kg po alone): 240 min/420 min | Total locomotor activity and locomotor 'On-Time' versus vehicle [2, 7]: greater than in vehicle-treated animals | Total locomotor activity and duration of activity (On-time) compared to bifeprunox (8 mg/kg po) alone and L-DOPA plus carbidopa alone [2, 8]: not different | locomotor On-Time compared to bifeprunox alone [2, 8]: slightly shorter than bifeprunox alone | locomotor activity compared to baseline [2, 8]: increased | median duration of activity (locomotor On-Time) [2, 8]: 300 min/420 min | locomotor activity compared to vehicle administration ([2]; bifeprunox 8 mg/kg po alone): increased | median duration of activity (locomotor On-Time) ([2]; bifeprunox 8 mg/kg po alone): 345 min/420 min | Total locomotor activity versus vehicle [2, 9]: greater than vehicle-treated animals | total locomotor activity and locomotor 'On-Time' compared to L-DOPA alone ([2]; bifeprunox 4 or 8 mg/kg po given in combination with L-DOPA): tended to increase | duration of activity ('on'-time) following L-DOPA ([2]; co-administration with L-DOPA): increased | peak locomotor activity as observed after L-DOPA alone ([2]; combined treatment with L-DOPA, hyperactivity was not observed): reduced | functional activity at serotonin 5-HT1A receptors [4]: partial agonist; also recorded: full agonism
